Measurements as given in US11229633B2, “Arimoclomol formulation” (Orphazyme A/S, priority 2014, dated 2022).
Where “and” joins values, the source holds several entries; their conditions need not be identical. Equal values may be shown once. Entries after “also recorded” stand apart in the source; their conditions may differ.

Tests used:
[1] = cited from earlier work
human OAT1 = molecular target: T1, human OAT1 (Homo sapiens, UniProt Q4U2R8); assay: Uptake transporter inhibition assay, OAT1; type: in vitro ADME; set-up: key to maximum inhibition: NIO: No interaction observed; conditions: for maximum inhibition: 0.3-300 μM
T1 construct: expressed in transfected cells; host or cells: CHO (protocol UPT-CHO-OAT1-Tenofovir; control: parental CHO-K1)
T1 sequence (Q4U2R8 1-563): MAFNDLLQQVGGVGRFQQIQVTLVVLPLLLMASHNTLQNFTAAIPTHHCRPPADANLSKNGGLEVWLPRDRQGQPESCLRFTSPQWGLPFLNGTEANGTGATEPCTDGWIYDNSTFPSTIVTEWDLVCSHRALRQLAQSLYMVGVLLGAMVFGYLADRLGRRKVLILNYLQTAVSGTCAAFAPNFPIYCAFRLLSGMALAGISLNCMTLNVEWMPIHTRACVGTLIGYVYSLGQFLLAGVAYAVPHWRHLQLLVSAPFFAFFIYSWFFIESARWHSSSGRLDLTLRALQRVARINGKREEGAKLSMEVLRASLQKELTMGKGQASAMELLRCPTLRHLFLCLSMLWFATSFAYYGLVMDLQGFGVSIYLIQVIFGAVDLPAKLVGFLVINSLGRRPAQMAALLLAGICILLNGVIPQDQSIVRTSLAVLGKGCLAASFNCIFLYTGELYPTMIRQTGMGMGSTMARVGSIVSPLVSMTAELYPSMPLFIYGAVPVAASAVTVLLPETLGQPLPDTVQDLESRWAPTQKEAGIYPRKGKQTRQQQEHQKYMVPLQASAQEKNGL
Description: (§1) Uptake experiments were performed using CHO, MDCKII, or HEK293 cells stably expressing the respective uptake transporters.
(§2) Cells were cultured at 37±1° C. in an atmosphere of 95:5 air:CO2 and were plated onto standard 96-well tissue culture plates at the cell number described in table 4.
(§3) Before the experiment, the medium was removed and the cells were washed twice with 100 μl of HK buffer at pH 7.4 (prepared from Sigma chemicals, Sigma-Aldrich, St Louis, Mo.). Uptake experiments were carried out at 37±1° C. in 50 μl of HK buffer (pH 7.4) containing the probe substrate and the TA or vehicle control (water).
(§4) After the experiment, cells were washed twice with ice cold, 100 μl of HK buffer and lysed with 50 μl of 0.1 M NaOH (1 mM CaCl2) in 5% SDS in the case of OATP1B3). Fluo-3 transport (OATP1B3) was determined by measuring fluorescence using 485 nm and 520 nm as the excitation and emission wavelengths, respectively. Radiolabelled probe substrate transport was determined by measuring an aliquot (35 μl) from each well for liquid scintillation counting.
Uptake of the probe substrate in control cells provided background activity values for all data points. Incubation without TA or reference inhibitor (solvent only) provided 100% activity values. A reference inhibitor served as positive control for inhibition.
The amount of translocated probe substrate was determined for each well in cpm or RFU. Relative activities were calculated from the equation:
[formula] A: amount of translocated substrate in the presence of TA in transfected cells B: amount of translocated substrate in the presence of TA in control cells C: amount of translocated substrate in the presence of solvent in transfected cells D: amount of translocated substrate in the presence of solvent in control cells Calculation of Fold Accumulation Values
(§5) In uptake transporter inhibition assays, the IC50 (μM) was calculated, where applicable. […]

[2] = Stability at conventional extrusion temperature; type: physicochemical; conditions: 100-200° C.
OATP1B1 = molecular target: T2, OATP1B1 (Homo sapiens, UniProt Q9Y6L6); assay: Substrate statement, OATP1B1; type: in vitro ADME
T2 sequence (Q9Y6L6 1-691): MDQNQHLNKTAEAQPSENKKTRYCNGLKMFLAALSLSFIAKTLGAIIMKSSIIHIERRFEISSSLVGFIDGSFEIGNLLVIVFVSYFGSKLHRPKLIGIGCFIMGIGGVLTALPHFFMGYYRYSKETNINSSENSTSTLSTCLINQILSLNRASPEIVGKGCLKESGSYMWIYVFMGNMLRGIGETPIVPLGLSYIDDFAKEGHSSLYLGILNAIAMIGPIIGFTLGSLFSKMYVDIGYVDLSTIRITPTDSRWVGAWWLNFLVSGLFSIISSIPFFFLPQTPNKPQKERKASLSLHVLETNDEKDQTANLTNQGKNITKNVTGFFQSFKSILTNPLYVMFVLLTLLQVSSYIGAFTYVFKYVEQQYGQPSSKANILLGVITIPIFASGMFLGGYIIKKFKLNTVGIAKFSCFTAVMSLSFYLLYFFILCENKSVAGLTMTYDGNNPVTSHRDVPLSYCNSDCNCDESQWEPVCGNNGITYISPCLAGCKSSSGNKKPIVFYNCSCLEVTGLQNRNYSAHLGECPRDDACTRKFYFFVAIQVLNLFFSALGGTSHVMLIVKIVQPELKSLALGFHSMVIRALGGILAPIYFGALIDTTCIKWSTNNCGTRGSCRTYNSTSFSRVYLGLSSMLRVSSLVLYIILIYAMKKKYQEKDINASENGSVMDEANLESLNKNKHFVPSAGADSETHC

human OCT2 = molecular target: T3, human OCT2 (Homo sapiens, UniProt O15244); assay: Uptake transporter inhibition assay, OCT2; type: in vitro ADME
T3 construct: expressed in transfected cells; host or cells: CHO (protocol UPT-CHO-OCT2-Metf; control: parental CHO-K1)
T3 sequence (O15244 1-555): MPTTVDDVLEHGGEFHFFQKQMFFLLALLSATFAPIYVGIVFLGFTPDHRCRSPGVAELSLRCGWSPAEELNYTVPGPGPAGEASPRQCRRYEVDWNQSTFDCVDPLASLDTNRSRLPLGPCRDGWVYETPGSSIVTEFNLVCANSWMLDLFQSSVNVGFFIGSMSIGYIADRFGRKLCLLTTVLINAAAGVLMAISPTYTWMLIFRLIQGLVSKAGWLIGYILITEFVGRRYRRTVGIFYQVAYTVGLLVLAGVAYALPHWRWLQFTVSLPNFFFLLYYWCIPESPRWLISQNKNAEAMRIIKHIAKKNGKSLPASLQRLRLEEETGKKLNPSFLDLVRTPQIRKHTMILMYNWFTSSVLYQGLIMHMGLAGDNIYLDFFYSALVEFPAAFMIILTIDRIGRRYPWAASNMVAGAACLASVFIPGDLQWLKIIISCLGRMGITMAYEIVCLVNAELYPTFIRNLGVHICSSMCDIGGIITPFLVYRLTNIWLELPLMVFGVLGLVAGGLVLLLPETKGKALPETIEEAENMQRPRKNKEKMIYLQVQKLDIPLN
Description: as §1, §2, §3, §4
Uptake of the probe substrate in control cells provided background activity values for all data points. […]
The amount of translocated probe substrate was determined for each well in cpm or RFU. Relative activities were calculated from the equation: […]
as §5

For `[O-][n+]1cccc(C(Cl)=NOCC(O)CN2CCCCC2)c1` (stereo not shown) [Arimoclomol, N-[2-hydroxy-3-(1-piperidinyl)-propoxy]-pyridine-1-oxide-3-carboximidoyl chloride], the maximum tolerated dose ([1]; healthy human volunteers) is listed as “no maximum tolerated dose has been reached”, the safety and tolerability ([1]; oral single ascending or repeated doses 50 to 800 mg, 261 subjects) is listed as “safe and well-tolerated” and the serum creatinine levels ([1]; single- and multiple-dose Phase I studies) is listed as “slight and reversible increases”. For the same molecule, the maximum inhibition (human OAT1; Table 2) was “NIO”, the maximum inhibition (human OAT1; Table 5) was “NIO” and the “Influence on OAT1-mediated probe substrate accumulation (in words)” value (human OAT1; applied concentrations) was “did not influence; also recorded: not an inhibitor”. For the same molecule, the “Stability at conventional extrusion temperature” value [2] was “not stable”, the “Substrate of the transporter (in words)” value (OATP1B1) was “not a substrate” and the “Inhibitor of the OCT2 transporter (in words)” value (human OCT2) was “inhibitor”. For the same molecule, the IC50 (human OCT2; OCT2-mediated metformin (10 μM) uptake, CHO cells) was 10 µM and 9.72 µM.
